Like-named read-outs stand apart in the source and are kept apart here. Starred links: 1 amine or outer side, 2 acyl side, 3 side chain; linkers in the order of their positions; H or OH if unused. Non-standard residues stand in square brackets, D forms with d. Residues, ends and D or L forms follow the SMILES beside them. ξ: configuration not given here. Glutaryl = O=C(CCCC(=O)[*:2])[*:1]; ξH = NC(Cc1c[nH]cn1)C(=O)O
Legend:
[1] = tested on: Coxsackie A2 virus (strain HCXV A2); test: Antiviral activity against Coxsackie virus in vivo (mortality and life expectancy of infected mice); details: for inhibition in vivo at 30 mg/kg / mortality at 30 mg/kg: Mus musculus, po; for inhibition in vivo at 30 mg/kg: 168 h, read-out: Protective index (%); for mortality at 30 mg/kg: 360 h, read-out: Total mortality, %; for Average life expectancy (days), Compared with control: difference vs virus control; for Average life expectancy (days), Relative: mice infected with 10LD50 HCXV A2
Experimental: In the study a trypsin-dependent strain HCXV A2 was used, previously adapted and causing death in mice from Coxsackie virus infection.
The experiment was carried out in white mice weighing 6 to 7 g. The animals were infected intramuscularly with a dose of 0.1 mL/mouse. The used infectious dose causing mortality in mice was 10LD50.
The ability of compounds to provide a therapeutic effect was determined by the mortality rate of HCXV A2 virus-infected mice in the experimental group relative to the group of untreated animals.
The studied compounds and placebo were administered orally according to the treatment regimen. Normal saline solution was administered to mice as placebo. Intact animals served as a negative control and were hold in a separate room under the same conditions as the experimental animals.
For the experiment, groups were formed with 14-15 animals each. Compounds were administered at a dose of 30 mg/kg of body weight. The studied compounds were administered orally once daily for 7 days (first administration was made 24 hours after infection). The animals were monitored for 15 days during which the animals were weighed and the mortality rate was registered every day.

[2] = tested on: human respiratory syncytial virus (strain A2); test: Antiviral activity against RS virus in a murine model of suppressed immune system (lung edema); format: in vivo; details: Balb/c mice, cyclophosphan-suppressed, RS-virus pneumonia; 30 mg/kg once daily for 5 days; M ± SD, n = 5; scores from possible 4
Experimental: Antiviral activity of the chemical compounds against human respiratory syncytial virus (strain A2, an infectious titer of 5×10^6 TCID50/mL) was assessed in a Balb/c murine model of viral pneumonia. The virus was inoculated to animals intranasally in a volume of 50 μL under brief ether anesthesia. The immune response in animals to RS virus was suppressed by intraperitoneal administration of cyclophosphan at a dose of 100 mg/kg 5 days before infection. The studied compounds were administered according to the treatment regimen once daily at a dose of 30 mg/kg for 5 days, starting 24 hours after infection. The activity of the compounds was determined by a reduction in edema of the lung infected with respiratory syncytial virus, compared to the control, on day 5 after infection.

human virus hRSV = test: Antiviral activity against mouse-adapted RS virus (body weight; viral titer in lungs titrated in Hep-2 cells); format: in vivo, mice; details: for Body weight of the mice on day 5 after infection with hRSV (M ± SD) / Body weight of the mice on day 7 after infection with hRSV (M ± SD) / hRSV in the lungs of mice, Day 5, lg / hRSV in the lungs of mice, Day 7, lg: compounds 30 mg/kg, Ribavirin 40 mg/kg; for Body weight of the mice on day 5 after infection with hRSV (M ± SD) / Body weight of the mice on day 7 after infection with hRSV (M ± SD): orally once daily for 5 days, n = 6; for hRSV in the lungs of mice, Day 5, lg / hRSV in the lungs of mice, Day 7, lg: 10% lung suspension titrated in Hep-2 cells (TCID); for log reduction at 30 mg/kg: human respiratory syncytial virus, HEp-2, po
Experimental: Antiviral effectiveness of the chemical compounds against RSV in an experimental murine model in vivo was determined for human virus hRSV that was previously adapted to the growth in mouse lungs. The animals were infected with the virus at a dose of 0.5 log TCID50 intranasally under brief ether anesthesia in a volume of 0.05 ml/mouse. The studied compounds were administered orally once daily for 5 days according to the treatment regimen at a dose of 30 mg/kg. The first administration was made 24 hours after infection. Normal saline solution was administered to mice as placebo. Intact animals served as a negative control and were hold in a separate room under the same conditions as the experimental animals. Each experimental group comprised 12 animals.
The antiviral activity of the studied compounds was determined by the efficiency in the prevention of weight loss and by suppression of the reproduction of hRSV in the mouse lungs by measuring a viral titer in the experimental groups relative to the control on days 5 and 7 after infection.
In addition, the therapeutic action of the compounds of general formula I was determined by their ability to suppress the reproduction of hRSV in the mouse lungs on days 5 and 7 after infection. The viral titer was determined by the titration of a 10% lung suspension in Hep-2 cell culture. The result was registered 2 days after the incubation at 37° C. by TCID.

[3] = 30 mg/kg orally once daily for 7 days, vs virus control
[4] = 30 mg/kg orally once daily for 7 days
[5] = 120 h, read-out: Suppression of the reproduction of hRSV in the lungs of mice, Day 5, Δlg
[6] = 168 h, read-out: Suppression of the reproduction of hRSV in the lungs of mice, Day 7, Δlg

SMILES | inhibition in vivo at 30 mg/kg [1, 3] [%] | mortality at 30 mg/kg [1] [%] | Average life expectancy (days), Compared with control [1, 4] | Average life expectancy (days), Relative [1, 4] [days] | Degree of lung edema on day 5 after infection, score [2] [score] | further results
O=C(O)CCCC(=O)NCCCc1ccccn1 [Compound 35] | 27 | 53.3 | +5.9 days | 16.6 | 1.48 ± 0.17 | 
O=C(O)CCCC(=O)NCCC1CNCCN1 (stereo not shown) [Compound 8] |  |  |  |  |  | Body weight of the mice on day 5 after infection with hRSV (M ± SD) (human virus hRSV): 15.18 ± 0.18; Body weight of the mice on day 7 after infection with hRSV (M ± SD) (human virus hRSV): 17.13 ± 0.27
CC(C)C(NC(=O)C(Cc1cnc[nH]1)NC(=O)CCCC(=O)O)C(N)=O (stereo not drawn) [Compound 90] (Glutaryl-His-Val-NH2; configuration not given here) | 50 | 35.7 | +15.1 days | 25.9 |  | 
O=C(O)CCCC(=O)NCCC1=NCCN1 [Compound 3] |  |  |  |  | 1.6 ± 0.89 | hRSV in the lungs of mice, Day 5, lg (human virus hRSV): 3.04 ± 0.42 lg; Body weight of the mice on day 5 after infection with hRSV (M ± SD) (human virus hRSV): 16.65 ± 0.28; hRSV in the lungs of mice, Day 7, lg (human virus hRSV): 1.46 ± 0.17 lg; Body weight of the mice on day 7 after infection with hRSV (M ± SD) (human virus hRSV): 17.32 ± 0.25; log reduction at 30 mg/kg (human virus hRSV; [5]): 1.56 ± 0.42; log reduction at 30 mg/kg (human virus hRSV; [6]): 2.18 ± 0.28
NC(=O)C(CO)NC(=O)C(Cc1cnc[nH]1)NC(=O)CCCC(=O)O (stereo not drawn) [Compound 96] (Glutaryl-His-Ser-NH2; configuration not given here) |  |  |  |  | 0.35 ± 0.11 | 
CN(CCc1cnc[nH]1)C(=O)CCCC(=O)O [Compound 117] |  |  |  |  |  | hRSV in the lungs of mice, Day 5, lg (human virus hRSV): 3.00 ± 0.41 lg; Body weight of the mice on day 5 after infection with hRSV (M ± SD) (human virus hRSV): 16.07 ± 0.12; hRSV in the lungs of mice, Day 7, lg (human virus hRSV): 1.46 ± 0.24 lg; Body weight of the mice on day 7 after infection with hRSV (M ± SD) (human virus hRSV): 16.48 ± 0.28; log reduction at 30 mg/kg (human virus hRSV; [5]): 1.6 ± 0.41; log reduction at 30 mg/kg (human virus hRSV; [6]): 2.22 ± 0.34
CC(CCC(=O)O)C(=O)NCCc1c[nH]cn1 (stereo not shown) [Compound 30] | 18 | 60 | +2.4 days | 13.1 |  | 
COC(=O)C(NC(=O)C(Cc1cnc[nH]1)NC(=O)CCCC(=O)O)C(C)O (stereo not drawn) [Compound 148] (Glutaryl-His-Thr-OMe; configuration not given here) |  |  |  |  | 2.00 ± 0.31 | 
O=C(O)CCCC(=O)NCCC1CNC=N1 (stereo not shown) [Compound 4] |  |  |  |  | 1.95 ± 0.31 | hRSV in the lungs of mice, Day 5, lg (human virus hRSV): 2.58 ± 0.51 lg; Body weight of the mice on day 5 after infection with hRSV (M ± SD) (human virus hRSV): 16.77 ± 0.20; hRSV in the lungs of mice, Day 7, lg (human virus hRSV): 1.38 ± 0.24 lg; Body weight of the mice on day 7 after infection with hRSV (M ± SD) (human virus hRSV): 17.08 ± 0.32; log reduction at 30 mg/kg (human virus hRSV; [5]): 2.02 ± 0.51; log reduction at 30 mg/kg (human virus hRSV; [6]): 2.58 ± 0.53
O=C(O)CCCC(=O)NCCc1cncs1 [Compound 122] |  |  |  |  |  | hRSV in the lungs of mice, Day 5, lg (human virus hRSV): 3.04 ± 0.44 lg; Body weight of the mice on day 5 after infection with hRSV (M ± SD) (human virus hRSV): 16.93 ± 0.32; hRSV in the lungs of mice, Day 7, lg (human virus hRSV): 1.75 ± 0.41 lg; Body weight of the mice on day 7 after infection with hRSV (M ± SD) (human virus hRSV): 16.37 ± 0.21; log reduction at 30 mg/kg (human virus hRSV; [5]): 1.56 ± 0.44; log reduction at 30 mg/kg (human virus hRSV; [6]): 1.88 ± 0.47
O=C(O)CCCC(=O)NCCc1cnon1 [Compound 29] | 50 | 35.7 | +13.7 days | 26.7 |  | 
O=C(O)CCCC(=O)NCCCc1ccco1 [Compound 32] | 33 | 42.9 | +10.0 days | 22.2 |  | 
O=C(O)CCCC(=O)NCCc1ccc(Cl)nc1 [Compound 36] | 27 | 53.3 | +6.0 days | 16.7 |  | 
NC(=O)CNC(=O)C(Cc1c[nH]cn1)NC(=O)CCCC(=O)O (stereo not shown) [Compound 184] (Glutaryl-[ξH]-Gly-NH2) |  |  |  |  | 1.00 ± 0.19 | 
O=C(O)CCCC(=O)NCCC1CNCCO1 (stereo not shown) [Compound 9] |  |  |  |  | 1.00 ± 0.17 | Body weight of the mice on day 5 after infection with hRSV (M ± SD) (human virus hRSV): 15.75 ± 0.33; Body weight of the mice on day 7 after infection with hRSV (M ± SD) (human virus hRSV): 16.18 ± 0.29
O=C(O)CCCC(=O)OCCc1cnc[nH]1 [Compound 71] | 44 | 35.7 | +16.4 days | 28.6 |  | 
O=C(O)CCCC(=O)NCCc1ncccn1 [Compound 12] | 45 | 40 | +14.2 days | 24.9 |  | 
O=C(O)CCCC(=O)NCCc1cn2ccccc2n1 [Compound 139] |  |  |  |  | 1.75 ± 0.77 | 
O=C(O)CCCC(=O)NCCc1ccc[nH]1 [Compound 14] |  | 50 | +10.4 days | 21.4 |  | inhibition in vivo at 30 mg/kg [1]: 36%
O=C(O)CCCC(=O)NCCc1cccnn1 [Compound 13] | 36 | 46.7 | +8.3 days | 19.0 |  | 
CC(C)(CCC(=O)NC(Cc1c[nH]cn1)C(=O)O)C(=O)O (stereo not shown) [Compound 75] | 50 | 35.7 | +14.3 days | 27.3 |  | 
COC(=O)C(NC(=O)C(Cc1cnc[nH]1)NC(=O)CCCC(=O)O)C(C)C (stereo not drawn) [Compound 89] (Glutaryl-His-Val-OMe; configuration not given here) | 27 | 53.3 | +7.0 days | 17.7 | 0.75 ± 0.17 | 
COC(=O)C(C)NC(=O)C(Cc1cnc[nH]1)NC(=O)CCCC(=O)O (stereo not shown) [Compound 91] |  |  |  |  | 0.40 ± 0.11 | 
O=C(O)CCCC(=O)NCCC1COCCN1 (stereo not shown) [Compound 10] |  |  |  |  |  | Body weight of the mice on day 5 after infection with hRSV (M ± SD) (human virus hRSV): 16.18 ± 0.29; Body weight of the mice on day 7 after infection with hRSV (M ± SD) (human virus hRSV): 16.53 ± 0.20

— patent publication US20170183318A1, “AMIDE COMPOUNDS, METHODS FOR PREPARATION, AND USE THEREOF AS AGENTS FOR THE TREATMENT AND PREVENTION OF DISEASES CAUSED BY RNA- AND/OR DNA-CONTAINING VIRUSES, AND CONCOMITANT DISEASES” (OBSCHESTVO S OGRANICHENNOI OTVETSTVENNOSTIYU …, priority 2014, published 2017)
